# Laboratory results taken from PubChem BioAssay AID1259407 (Chemical Carcinogenesis Research Information System (CCRIS), 2018).
# Calls of active or inactive are those of the source. How the calls were made is not given here.
# System: CCRIS mutagenicity, Ames/micronucleus/aberration tests
# Assay: CCRIS mutagenicity studies
# [1] = Test System: AMES SALMONELLA TYPHIMURIUM, Strain/Indicator: TA98, Metabolic Activation: NONE, Method: STANDARD PLATE
# [2] = Test System: AMES SALMONELLA TYPHIMURIUM, Strain/Indicator: TA100, Metabolic Activation: NONE, Method: STANDARD PLATE
# [3] = Test System: AMES SALMONELLA TYPHIMURIUM, Strain/Indicator: TA1538, Metabolic Activation: NONE, Method: STANDARD PLATE
# [4] = Test System: AMES SALMONELLA TYPHIMURIUM, Strain/Indicator: TA98, Metabolic Activation: RAT, LIVER, S-9, AROCLOR 1254, Method: STANDARD PLATE
# [5] = Test System: AMES SALMONELLA TYPHIMURIUM, Strain/Indicator: TA100, Metabolic Activation: RAT, LIVER, S-9, AROCLOR 1254, Method: PREINCUBATION
# [6] = Test System: AMES SALMONELLA TYPHIMURIUM, Strain/Indicator: TA100, Metabolic Activation: NONE, Method: PREINCUBATION
# [7] = Test System: AMES SALMONELLA TYPHIMURIUM, Strain/Indicator: TA98, Metabolic Activation: NONE, Method: PREINCUBATION
# [8] = Test System: AMES SALMONELLA TYPHIMURIUM, Strain/Indicator: TA1535, Metabolic Activation: NONE, Method: PREINCUBATION
# [9] = Test System: AMES SALMONELLA TYPHIMURIUM, Strain/Indicator: TA1537, Metabolic Activation: NONE, Method: PREINCUBATION
smiles,measurement,setting,value
C[Si](C)(C)N[Si](C)(C)C,mutagenic call,"Test System: AMES SALMONELLA TYPHIMURIUM, Strain/Indicator: TA98, Metabolic Activation: HAMSTER, LIVER, S-9, AROCLOR 1254 (10%), Method: STANDARD PLATE",inactive; negative
same,mutagenic call,[1],inactive; negative
same,mutagenic call,"Test System: AMES SALMONELLA TYPHIMURIUM, Strain/Indicator: TA98, Metabolic Activation: RAT, LIVER, S-9, AROCLOR 1254 (10%), Method: STANDARD PLATE",inactive; negative
same,mutagenic call,"Test System: AMES SALMONELLA TYPHIMURIUM, Strain/Indicator: TA100, Metabolic Activation: HAMSTER, LIVER, S-9, AROCLOR 1254 (10%), Method: STANDARD PLATE",inactive; negative
same,mutagenic call,[2],inactive; negative
same,mutagenic call,"Test System: AMES SALMONELLA TYPHIMURIUM, Strain/Indicator: TA100, Metabolic Activation: RAT, LIVER, S-9, AROCLOR 1254 (10%), Method: STANDARD PLATE",inactive; negative
same,mutagenic call,"Test System: AMES SALMONELLA TYPHIMURIUM, Strain/Indicator: TA1535, Metabolic Activation: HAMSTER, LIVER, S-9, AROCLOR 1254 (10%), Method: STANDARD PLATE",inactive; negative
same,mutagenic call,"Test System: AMES SALMONELLA TYPHIMURIUM, Strain/Indicator: TA1535, Metabolic Activation: NONE, Method: STANDARD PLATE",inactive; negative
same,mutagenic call,"Test System: AMES SALMONELLA TYPHIMURIUM, Strain/Indicator: TA1535, Metabolic Activation: RAT, LIVER, S-9, AROCLOR 1254 (10%), Method: STANDARD PLATE",inactive; negative
same,mutagenic call,"Test System: AMES SALMONELLA TYPHIMURIUM, Strain/Indicator: TA1537, Metabolic Activation: HAMSTER, LIVER, S-9, AROCLOR 1254 (10%), Method: STANDARD PLATE",inactive; negative
same,mutagenic call,"Test System: AMES SALMONELLA TYPHIMURIUM, Strain/Indicator: TA1537, Metabolic Activation: NONE, Method: STANDARD PLATE",inactive; negative
same,mutagenic call,"Test System: AMES SALMONELLA TYPHIMURIUM, Strain/Indicator: TA1537, Metabolic Activation: RAT, LIVER, S-9, AROCLOR 1254 (10%), Method: STANDARD PLATE",inactive; negative
same,mutagenic call,"Test System: AMES SALMONELLA TYPHIMURIUM, Strain/Indicator: TA1538, Metabolic Activation: HAMSTER, LIVER, S-9, AROCLOR 1254 (10%), Method: STANDARD PLATE",inactive; negative
same,mutagenic call,[3],inactive; negative
same,mutagenic call,"Test System: AMES SALMONELLA TYPHIMURIUM, Strain/Indicator: TA1538, Metabolic Activation: RAT, LIVER, S-9, AROCLOR 1254 (10%), Method: STANDARD PLATE",inactive; negative
same,mutagenic call,"Test System: MOUSE LYMPHOMA, Strain/Indicator: L5178Y (TK+/TK-), Metabolic Activation: NONE, Method: SUSPENSION/PLATE",inactive; negative. reevaluation of results: inconclusive
Cc1ccc(N=[N+]([O-])c2ccc(C)c([N+](=O)[O-])c2)cc1[N+](=O)[O-],mutagenic call,"Test System: AMES SALMONELLA TYPHIMURIUM, Strain/Indicator: TA98, Metabolic Activation: NONE, Method: SUSPENSION/PLATE",inactive; negative
same,mutagenic call,"Test System: AMES SALMONELLA TYPHIMURIUM, Strain/Indicator: TA98, Metabolic Activation: RAT, LIVER, S-9, PHENOBARBITAL AND 5,6-BENZOFLAVONE, Method: SUSPENSION/PLATE",inactive; negative
same,mutagenic call,"Test System: AMES SALMONELLA TYPHIMURIUM, Strain/Indicator: TA100, Metabolic Activation: NONE, Method: SUSPENSION/PLATE",inactive; negative
same,mutagenic call,"Test System: AMES SALMONELLA TYPHIMURIUM, Strain/Indicator: TA100, Metabolic Activation: RAT, LIVER, S-9, PHENOBARBITAL AND 5,6-BENZOFLAVONE, Method: SUSPENSION/PLATE",inactive; negative
CC(=O)Nc1ccc([N+](=O)[O-])cc1,mutagenic call,"Test System: AMES SALMONELLA TYPHIMURIUM, Strain/Indicator: TA98(NR), Metabolic Activation: NONE, Method: STANDARD PLATE",inactive; negative
same,mutagenic call,"Test System: AMES SALMONELLA TYPHIMURIUM, Strain/Indicator: TA98(NR), Metabolic Activation: RAT, LIVER, S-9, AROCLOR 1254, Method: STANDARD PLATE",inactive; negative
same,mutagenic call,[1],inactive; negative
same,mutagenic call,[4],inactive; negative
same,mutagenic call,"Test System: AMES SALMONELLA TYPHIMURIUM, Strain/Indicator: TA1538(NR), Metabolic Activation: NONE, Method: STANDARD PLATE",inactive; negative
same,mutagenic call,"Test System: AMES SALMONELLA TYPHIMURIUM, Strain/Indicator: TA1538(NR), Metabolic Activation: RAT, LIVER, S-9, AROCLOR 1254, Method: STANDARD PLATE",inactive; negative
same,mutagenic call,[3],inactive; negative
same,mutagenic call,"Test System: AMES SALMONELLA TYPHIMURIUM, Strain/Indicator: TA1538, Metabolic Activation: RAT, LIVER, S-9, AROCLOR 1254, Method: STANDARD PLATE",inactive; negative
Oc1ccc2cc3c4ccccc4c4ccccc4c3cc2c1,mutagenic call,[5],active; positive
Nc1ccc(/C=C/C(=O)O)cc1,mutagenic call,[1],inactive; negative
same,mutagenic call,[4],inactive; negative
same,mutagenic call,[6],inactive; negative
same,mutagenic call,[2],inactive; negative
same,mutagenic call,[5],inactive; negative
same,mutagenic call,"Test System: AMES SALMONELLA TYPHIMURIUM, Strain/Indicator: TA100, Metabolic Activation: RAT, LIVER, S-9, AROCLOR 1254, Method: STANDARD PLATE",inactive; negative
[N-]=[N+]=NC[C@H](CO)Cc1ccccc1,mutagenic call,"Test System: AMES SALMONELLA TYPHIMURIUM, Strain/Indicator: TA100, Metabolic Activation: RAT, LIVER, S-9, PCB, Method: PREINCUBATION",active; positive
CC1CCc2c(N3CCC(O)CC3)c(F)cc3c(=O)c(C(=O)O)cn1c23 (stereo not drawn),mutagenic call,[7],inactive; negative
same,mutagenic call,"Test System: AMES SALMONELLA TYPHIMURIUM, Strain/Indicator: TA98, Metabolic Activation: RAT, LIVER, S-9, NADPH, Method: PREINCUBATION",inactive; negative
same,mutagenic call,[6],inactive; negative
same,mutagenic call,"Test System: AMES SALMONELLA TYPHIMURIUM, Strain/Indicator: TA100, Metabolic Activation: RAT, LIVER, S-9, NADPH, Method: PREINCUBATION",inactive; negative
same,mutagenic call,[8],inactive; negative
same,mutagenic call,"Test System: AMES SALMONELLA TYPHIMURIUM, Strain/Indicator: TA1535, Metabolic Activation: RAT, LIVER, S-9, NADPH, Method: PREINCUBATION",inactive; negative
same,mutagenic call,[9],inactive; negative
same,mutagenic call,"Test System: AMES SALMONELLA TYPHIMURIUM, Strain/Indicator: TA1537, Metabolic Activation: RAT, LIVER, S-9, NADPH, Method: PREINCUBATION",inactive; negative
same,mutagenic call,"Test System: AMES SALMONELLA TYPHIMURIUM, Strain/Indicator: TA1538, Metabolic Activation: NONE, Method: PREINCUBATION",inactive; negative
same,mutagenic call,"Test System: AMES SALMONELLA TYPHIMURIUM, Strain/Indicator: TA1538, Metabolic Activation: RAT, LIVER, S-9, NADPH, Method: PREINCUBATION",inactive; negative
same,mutagenic call,"Test System: E. COLI, Strain/Indicator: WP2 UVRA, Metabolic Activation: RAT, LIVER, S-9, NADPH, Method: PREINCUBATION",inactive; negative
same,mutagenic call,"Test System: E.COLI, Strain/Indicator: WP2 UVRA, Metabolic Activation: NONE, Method: PREINCUBATION",inactive; negative
CCOC(=O)[C@H](CCc1ccccc1)N[C@@H](C)C(=O)N1[C@H](C(=O)O)C[C@H]2CCCC[C@@H]21,mutagenic call,[7],inactive; negative
same,mutagenic call,"Test System: AMES SALMONELLA TYPHIMURIUM, Strain/Indicator: TA98, Metabolic Activation: RAT, LIVER, S-9, PHENOBARBITAL AND 5,6-BENZOFLAVONE, Method: PREINCUBATION",inactive; negative
same,mutagenic call,[6],inactive; negative
same,mutagenic call,"Test System: AMES SALMONELLA TYPHIMURIUM, Strain/Indicator: TA100, Metabolic Activation: RAT, LIVER, S-9, PHENOBARBITAL AND 5,6-BENZOFLAVONE, Method: PREINCUBATION",inactive; negative
same,mutagenic call,[8],inactive; negative
same,mutagenic call,"Test System: AMES SALMONELLA TYPHIMURIUM, Strain/Indicator: TA1535, Metabolic Activation: RAT, LIVER, S-9, PHENOBARBITAL AND 5,6-BENZOFLAVONE, Method: PREINCUBATION",inactive; negative
same,mutagenic call,[9],inactive; negative
same,mutagenic call,"Test System: AMES SALMONELLA TYPHIMURIUM, Strain/Indicator: TA1537, Metabolic Activation: RAT, LIVER, S-9, PHENOBARBITAL AND 5,6-BENZOFLAVONE, Method: PREINCUBATION",inactive; negative
same,mutagenic call,"Test System: E. COLI, Strain/Indicator: WP2 UVRA, Metabolic Activation: NONE, Method: PREINCUBATION",inactive; negative
same,mutagenic call,"Test System: E. COLI, Strain/Indicator: WP2 UVRA, Metabolic Activation: RAT, LIVER, S-9, PHENOBARBITAL AND 5,6-BENZOFLAVONE, Method: PREINCUBATION",inactive; negative
